Where two headings read alike, the source gives them in different places.
Legend:
plasmin = target: T1, plasmin (Homo sapiens, UniProt P00747); assay: Stability of plasmin solutions (Chromozym TH chromogenic substrate, T 70%); type: physicochemical; conditions: for T 70%: 100 μg/ml plasmin in 10 mM HEPES, 0.13 M NaCl, pH 7.4, 37° C.; for increase in stability of plasmin composition, factor: T 70% relative to plasmin without additives, 37° C.
T1 construct: 100 μg/ml of plasmin (specific activity 3.2 units/mg, Sigma-Aldrich); purchased Sigma-Aldrich
Procedure: The stabilization of solutions of plasmin in accordance with the invention was tested. The activity of plasmin was determined using chromogenic peptide substrate Chromozym TH (Pentapharm, Switzerland) and measurement of absorbance change at 405 nm in a spectrophotometer. Solutions containing 100 μg/ml of plasmin (specific activity 3.2 units/mg, Sigma-Aldrich) in 10 mM HEPES and 0.13 M NaCl, pH 7.4, as well as stabilizers as indicated in Table 2 below were incubated at 37° C., and samples were taken out at various time intervals for activity determination.

trypsin = target: T2, trypsin (Bos taurus, UniProt P00760); assay: Stability of trypsin solutions (TAME substrate, T 70%); type: physicochemical; conditions: for T 70%: 100 μg/ml trypsin in 10 mM HEPES, 0.13 M NaCl, pH 7.4, 37° C.; for increase in stabilization of trypsin, factor: T 70% relative to trypsin without additives, 37° C.
T2 construct: 100 μg/ml of trypsin (TPCK-treated, Sigma-Aldrich); purchased Sigma-Aldrich
T2 sequence (P00760 24-246): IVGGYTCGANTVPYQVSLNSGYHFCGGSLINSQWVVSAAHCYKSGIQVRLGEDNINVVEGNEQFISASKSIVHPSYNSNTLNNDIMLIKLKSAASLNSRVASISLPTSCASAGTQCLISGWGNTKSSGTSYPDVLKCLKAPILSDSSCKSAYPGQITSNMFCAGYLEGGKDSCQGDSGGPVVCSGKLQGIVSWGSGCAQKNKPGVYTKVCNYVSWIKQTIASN
Procedure: The stabilization of solutions of trypsin in accordance with the invention was tested. The activity of trypsin was determined using tosyl arginine methyl ester (TAME) as substrate and measuring the absorbance change at 247 nm in a spectrophotometer. Solutions containing 100 μg/ml of trypsin (TPCK-treated, Sigma-Aldrich) in 10 mM HEPES and 0.13 M NaCl, pH 7.4, as well as stabilizers as indicated in Table 3 below were incubated at 37° C., and samples were taken out at various time intervals for activity determination.

human thrombin [1] = target: T3, human thrombin (Homo sapiens, UniProt P00734); assay: Stability of human thrombin solutions (fibrinogen clotting activity decay curves, T 70%); type: physicochemical; design: The thrombin used in the study is human thrombin derived from plasma; purchased Biovitrum AB, Sweden; host or cells: human plasma
Procedure: This value, denoted “T 70%”, is chosen since it corresponds to what could be accepted as a maximum permitted loss in activity during a life span of a commercial product.
In the experimental studies, a high temperature (37° C.) has been used, as well as a high concentration of enzyme. This has been made in order to obtain stability data in reasonably short times, and not have to wait for months or years.
(§1) The clotting times were measured using an Amelungen Kc 1 coagulometer (Amelungen, Germany). […] From the values obtained, activity decay curves could be constructed.

bovine thrombin = target: T4, bovine thrombin (Bos taurus, UniProt P00735); assay: Stability of bovine thrombin solutions (T 70%); type: physicochemical; conditions: 0.4 mg/ml bovine thrombin (Baxter) in HEPES buffer, 37° C.
T4 construct: purchased Baxter
Procedure: as §1

human thrombin [2] = target: T3, human thrombin; conditions: for Apparent inhibition (%) / Apparent thrombin concentration (U/ml): 89 units/ml human thrombin, 0.01 M HEPES, 0.13 M NaCl, pH 7.4
Procedure: The clotting tests in this experimental setup were performed in 0.01 M HEPES, 0.13 M NaCl buffer of pH 7.4, which is according to standard procedure (EU Pharmacopeia). […] Solutions of various concentrations of morpholine were prepared in the HEPES buffer by adding a concentrated morpholine solution adjusted to pH 7.4.

human thrombin [3] = target: T3, human thrombin; assay: Stability of human thrombin solutions (fibrinogen clotting activity decay curves, T 70%); type: physicochemical; design: The thrombin used in the study is human thrombin derived from plasma; purchased Biovitrum AB, Sweden; host or cells: human plasma; conditions: 1 mg/ml thrombin in 10 mM HEPES, 0.13 M NaCl, pH 7.4
[4] = time to reach 70% of initial activity, 1 mg/ml thrombin in 10 mM HEPES, 0.13 M NaCl, pH 7.4, 37° C.
[5] = T 70% relative to 1 mg/ml thrombin without additives, 37° C.

T1 sequence (P00747 581-810 limits assumed, species assumed): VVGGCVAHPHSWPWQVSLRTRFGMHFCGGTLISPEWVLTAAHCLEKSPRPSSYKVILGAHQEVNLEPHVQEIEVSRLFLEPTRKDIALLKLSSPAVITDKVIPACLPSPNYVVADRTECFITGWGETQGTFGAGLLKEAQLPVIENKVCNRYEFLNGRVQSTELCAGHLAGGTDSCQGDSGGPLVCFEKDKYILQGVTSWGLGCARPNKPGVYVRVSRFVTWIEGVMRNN
T1 sequence (P00747 97-580 partner limits assumed, species assumed): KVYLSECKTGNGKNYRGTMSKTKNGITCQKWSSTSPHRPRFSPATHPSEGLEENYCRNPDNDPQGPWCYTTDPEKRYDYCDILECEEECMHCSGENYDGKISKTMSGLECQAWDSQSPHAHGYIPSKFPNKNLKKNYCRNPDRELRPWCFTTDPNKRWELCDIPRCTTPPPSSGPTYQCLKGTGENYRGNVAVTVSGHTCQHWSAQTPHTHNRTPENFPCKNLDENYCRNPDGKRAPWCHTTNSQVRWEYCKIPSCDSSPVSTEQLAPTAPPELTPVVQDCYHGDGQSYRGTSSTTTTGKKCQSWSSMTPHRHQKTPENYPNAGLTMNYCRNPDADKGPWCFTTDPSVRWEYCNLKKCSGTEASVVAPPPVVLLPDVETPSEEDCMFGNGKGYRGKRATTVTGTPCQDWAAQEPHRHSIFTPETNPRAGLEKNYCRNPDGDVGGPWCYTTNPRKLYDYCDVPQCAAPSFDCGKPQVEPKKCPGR

N=C(N)c1ccccc1 [benzamidine, reference compound] was tested, and the “T 70%” value (plasmin) was 16 h, the “T 70%” value (trypsin) was 43 h and the “increase in stabilization of trypsin, factor” value (trypsin) was 72.
O=C(O)CCCN1CCOCC1 [morpholino propyl carboxylic acid] was tested, and the “T 70%” value (human thrombin [1]; [4]) was 4.1 days.
In the case of “bovine thrombin: bovine thrombin (Baxter), solution in HEPES buffer without additives”, the “T 70%” value (bovine thrombin) was 1.3 days.
For C1COCCN1 [morpholine], the “T 70%” value (plasmin) was 12 h, the “increase in stability of plasmin composition, factor” value (“increase in stability” below) (plasmin) was 4 and the “T 70%” value (trypsin) was 8 h. For the same compound, the “increase in stabilization of trypsin, factor” value (trypsin) was 13, the “Apparent inhibition (%)” value (human thrombin [2]; 0.05 M added) was 4% and the “Apparent thrombin concentration (U/ml)” value (human thrombin [2]; 0.05 M added) was 87 U/ml. The “Apparent inhibition (%)” value (human thrombin [2]; 0.10 M added) was 20%, the “Apparent thrombin concentration (U/ml)” value (human thrombin [2]; 0.10 M added) was 71 U/ml and the “Apparent inhibition (%)” value (human thrombin [2]; 0.15 M added) was 45%. The “Apparent thrombin concentration (U/ml)” value (human thrombin [2]; 0.15 M added) was 49 U/ml, the “Apparent inhibition (%)” value (human thrombin [2]; 0.20 M added) was 43% and the “Apparent thrombin concentration (U/ml)” value (human thrombin [2]; 0.20 M added) was 51 U/ml. The “inhibitor of thrombin (conclusion)” value (human thrombin [2]; clotting time prolongation ascribed to ionic strength) was “not an inhibitor of thrombin” and the “T 70%” value (human thrombin [1]; [4]) was 8.5 days.
In the case of O=S(=O)(O)CCN1CCOCC1 [morpholino ethyl sulphonic acid], the “T 70%” value (human thrombin [1]; [4]) was 3.2 days.
In the case of N-(2′-phenoxy)-4-aminopyridin, the “increase in stabilization, factor” value (human thrombin [1]; [5]) was 22, the “T 70%” value (human thrombin [1]; time to reach 70% of initial activity, 1 mg/ml thrombin in 10 mM HEPES, 0.13 M NaCl, pH 7.4, 37° C., listed as 1.9 mM N-(2′-phenoxy)-4-aminopyridin) was 35 days and the “T 70%” value (human thrombin [1]; time to reach 70% of initial activity, 1 mg/ml thrombin in 10 mM HEPES, 0.13 M NaCl, pH 7.4, 37° C., listed as 3.1 mM N-(2′-phenoxy)-4-aminopyridin) was 74 days.
In the case of O=S(=O)(O)CCCN1CCOCC1 [MOPS, 3-(N-morpholino)propanesulfonic acid], the “increase in stabilization, factor” value (human thrombin [1]; [5]) was 4.7 and the “T 70%” value (human thrombin [1]; pH 7.4) was 7.5 days.
thrombin was tested, and the “T 70%” value (human thrombin [1]; 15.0 activity units/ml human thrombin in HEPES buffer, pH 7.4) was 23 days, the “T 70%” value (human thrombin [3]; refrigerator storage (around 5° C.)) was 36 days and the “T 70%” value (human thrombin [3]; room temperature (around 21° C.)) was 5.4 days.
With CCN(CC)CCN [N,N-diethylethylenediamine] the “T 70%” value (plasmin) was 8 h, the “increase in stability” value (plasmin) was 2.7 and the “T 70%” value (human thrombin [1]; [4]) was 10 days.
With aminobenzamidine [reference compound] the “T 70%” value (plasmin) was 52 h, the “increase in stability” value (plasmin) was 17 and the “increase in stabilization, factor” value (human thrombin [1]) was 12.5. For the same compound, the “T 70%” value (human thrombin [1]; pH 7.4) was 20 days.
OCCN1CCOCC1 [morpholino ethyl alcohol] was tested, and the “T 70%” value (human thrombin [1]; [4]) was 3.8 days.
For O=S(=O)(O)CCCCN1CCOCC1 [morpholino butyl sulphonic acid], the “T 70%” value (human thrombin [1]; [4]) was 4.0 days.
For [Cl-].[Na+] [NaCl, reference compound], the “Apparent inhibition (%)” value (human thrombin [2]; 0.05 M added) was 17%, the “Apparent thrombin concentration (U/ml)” value (human thrombin [2]; 0.05 M added) was 74 U/ml and the “Apparent inhibition (%)” value (human thrombin [2]; 0.10 M added) was 40%. The “Apparent thrombin concentration (U/ml)” value (human thrombin [2]; 0.10 M added) was 53 U/ml, the “Apparent inhibition (%)” value (human thrombin [2]; 0.15 M added) was 34% and the “Apparent thrombin concentration (U/ml)” value (human thrombin [2]; 0.15 M added) was 58 U/ml. For the same compound, the “Apparent inhibition (%)” value (human thrombin [2]; 0.20 M added) was 37% and the “Apparent thrombin concentration (U/ml)” value (human thrombin [2]; 0.20 M added) was 55 U/ml.
